Test results as given in patent US6573259B2, “Inhibitors of interleukin-1β converting enzyme” (Vertex Pharmaceuticals Incorporated, priority 1996, dated 2003).

Assays:
Human whole blood = test: Whole blood assay for IL-1β production; type: cell-based; settings: 16-18 hr
Experimental: Whole Blood Assay for IL-1β Production
The whole blood assay is a simple method for measuring the production of IL-1β (or other cytokines) and the activity of potential inhibitors. The complexity of this assay system, with its full complement of lymphoid and inflammatory cell types, spectrum of plasma proteins and red blood cells is an ideal in vitro representation of human in vivo physiologic conditions.
Set incubator or water bath at 30° C. Aliquot 0.25 ml of blood into 1.5 ml eppendorf tubes, making sure to invert the whole blood sample tubes after every two aliquots. Differences in replicates may result if the cells sediment and are not uniformly suspended. Use of a positive displacement pipette will also minimize differences between replicate aliquots.
Prepare drug dilutions in sterile pyrogen-free saline by serial dilution. A dilution series which brackets the apparent Ki for a test compound determined in an ICE inhibition assay is generally used for the primary compound screen. For extremely hydrophobic compounds, prepare compound dilutions in fresh plasma obtained from the same blood donor or in PBS-containing 5% DMSO to enhance solubility.
Add 25 μl test compound dilution or vehicle control and gently mix the sample. Then add 5.0 μl LPS solution (250 ng/ml stocked prepared fresh: 5.0 ng/ml final concentration LPS), and mix again. Incubate the tubes at […] in a water bath for 16-18 hr with occasional mixing. Alternatively, the tubes can be placed in a rotator set at 4 rpm for the same incubation period. This assay should be set up in duplicate or triplicate with the following controls: negative control—no LPS; positive control—no test inhibitor; vehicle control—the highest concentration of DMSO or compound solvent used in the experiment. Additional saline is added to all control tubes to normalize volumes for both control and experimental whole blood test samples.
After the incubation period, whole blood samples are centrifuged for 10 minutes at ˜2000 rpm in the microfuge, plasma is transferred to a fresh microfuge tube and centrifuged at 1000×g to pellet residual platelets if necessary. Plasma samples may be stored frozen at −70° C. prior to assay for cytokine levels by ELISA.
R & D Systems (614 McKinley Place N.E. Minneapolis, Minn. 55413) Quantikine kits may be used for measurement of IL-1β and TNF-α. The assays are performed according to the manufacturer's directions. IL-1β levels of ˜1-5 ng/ml in positive controls among a range of individuals may be observed. A 1:200 dilution of plasma for all samples is usually sufficient for experiments for ELISA results to fall on the linear range of the ELISA standard curves. It may be necessary to optimize standard dilutions if you observe differences in the whole blood assay. Nerad, J. L. et al., J. Leukocyte Biol., 52, pp. 687-692 (1992).

[1] = test system: Human Peripheral Blood Mononuclear Cells (PBMC); test: PBMC cell assay (IL-1β assay with human PBMC, LPS stimulated, ELISA); type: cell-based; settings: LPS 5 ng/ml, 16-18 hr
Description: IL-L1β Assay with a Mixed Population of Human Peripheral Blood Mononuclear Cells (PBMC) or Enriched Adherent Mononuclear Cells
Processing of pre-IL-1β by ICE can be measured in cell culture using a variety of cell sources. Human PBMC obtained from healthy donors provides a mixed population of lymphocyte subtypes and mononuclear cells that produce a spectrum of interleukins and cytokines in response to many classes of physiological stimulators. Adherent mononuclear cells from PBMC provides an enriched source of normal monocytes for selective studies of cytokine production by activated cells.
An initial dilution series of test compound in DMSO or ethanol is prepared, with a subsequent dilution into RPMI-10% FBS media (containing 2 mM L-glutamine, 10 mM HEPES, 50 U and 50 ug/ml pen/strep) respectively to yield drugs at 4× the final test concentration containing 0.4% DMSO or 0.4% ethanol. The final concentration of DMSO is 0.1% for all drug dilutions. A concentration titration which brackets the apparent Ki for a test compound determined in an ICE inhibition assay is generally used for the primary compound screen.
Generally 5-6 compound dilutions are tested and the cellular component of the assay is performed in duplicate, with duplicate ELISA determinations on each cell culture supernatant.
Buffy coat cells isolated from one pint human blood (yielding 40-45 ml final volume plasma plus cells) are diluted with media to 80 ml and LeukoPREP separation tubes (Becton Dickinson) are each overlaid with 10 ml of cell suspension. After 15 min centrifugation at 1500-1800 xg, the plasma/media layer is aspirated and then the mononuclear cell layer is collected with a Pasteur pipette and transferred to a 15 ml conical centrifuge tube (Corning). […] The PBMC pellet is resuspended in a small volume of media, the cells are counted and adjusted to 6×10^6 cells/ml. […]
The skilled practitioner realizes that values obtained in cell assays, such as those described herein, can depend on multiple factors. The values may not necessarily represent fine quantitative results.

[2] = Table 4, mature IL-1β in supernatant

Row | SMILES | IC50 (Human whole blood; Table 2, LPS 5.0 ng/ml) [µM] | IC50 (Human whole blood; Table 4, LPS 5.0 ng/ml) [µM] | also measured
1 | Nc1c(Cl)cc(C(=O)NC2N=C(c3ccccc3)c3ccccc3N(CC(=O)N[C@H](C=O)CC(=O)O)C2=O)cc1Cl (some centres unmarked) [Example 7] | > 20 | – | –
2 | Cc1cc(C(=O)NC2N=C(c3ccccc3)c3cc(NC=O)ccc3N(CC(=O)N[C@H](C=O)CC(=O)O)C2=O)cc(C)c1O (some centres unmarked) [Example 58] | – | > 20 | –
3 | COc1cccc(OC)c1C(=O)C(=O)NC1N=C(c2ccccc2)c2ccccc2N(CC(=O)N[C@H](C=O)CC(=O)O)C1=O (some centres unmarked) [Example 49] | – | – | IC50 [1, 2]: > 8 µM
4 | O=C[C@H](CC(=O)O)NC(=O)CN1C(=O)C(NC(=O)c2ccc(O)c(Cl)c2)N=C(c2ccccc2)c2ccccc21 (some centres unmarked) [Example 50] | – | – | IC50 [1, 2]: > 8 µM
5 | O=C[C@H](CC(=O)O)NC(=O)CN1C(=O)C(NC(=O)OCc2ccccc2)N=C(c2ccccc2)c2ccccc21 (stereo partly drawn) [Example 1, (3S)-3-[3(R,S)-1,3-Dihydro-2-oxo-5-phenyl((benzyloxycarbonyl)amino)-2H-1,4-benzodiazepin-1-acetylamino]-4-oxobutyric acid] | – | – | IC50 ([1]; Table 2, mature IL-1β in supernatant): 20 µM
6 | Cc1cc(C(=O)NC2N=C(c3ccccc3)c3cc(N)ccc3N(CC(=O)N[C@H](C=O)CC(=O)O)C2=O)cc(C)c1O (some centres unmarked) [Example 59] | – | 9.2 | –
7 | COc1ccc(Cl)cc1S(=O)(=O)NC1N=C(c2ccccc2)c2ccccc2N(CC(=O)N[C@H](C=O)CC(=O)O)C1=O (some centres unmarked) [Example 39] | – | > 20 | –
8 | Nc1ccc(C(=O)NC2N=C(c3ccccc3)c3ccccc3N(CC(=O)N[C@H](C=O)CC(=O)O)C2=O)cc1Cl (some centres unmarked) [Example 18] | > 20 | – | –
9 | Cc1cc(C(=O)NC2N=C(c3ccccc3)c3ccccc3N(CC(=O)N[C@H](C=O)CC(=O)O)C2=O)cc(C)c1O (some centres unmarked) [Example 19] | 10 | – | –
10 | O=C[C@H](CC(=O)O)NC(=O)CN1C(=O)C(NC(=O)c2nccc3ccccc23)N=C(c2ccccc2)c2ccccc21 (some centres unmarked) [Example 11] | – | 9 | –
11 | O=C[C@H](CC(=O)O)NC(=O)CN1C(=O)C(NC(=O)c2cc(Cl)c(O)c(Cl)c2)N=C(c2ccccc2)c2ccccc21 (some centres unmarked) [Example 21] | 10 | – | –
